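The compound was tested at five concentrations on cells cultured in 96-well plates, with a 48-hour exposure period. Abbreviation: GI50, concentration required for 50% inhibition of growth. TGI: total growth inhibition.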
Key:
Assay in all cases: NCI anticancer screen, dose series, 48 h
[1] = tested on: SK-MEL-28 melanoma
[2] = tested on: HT29 colon
[3] = tested on: A549 NSCLC
[4] = tested on: SN12C renal
[5] = tested on: MCF7 breast
[6] = tested on: HCT-15 colon
[7] = tested on: ACHN renal
[8] = tested on: SF-268 CNS
[9] = tested on: OVCAR-3 ovarian
[10] = tested on: SK-OV-3 ovarian
[11] = tested on: KM12 colon
[12] = tested on: TK-10 renal
[13] = tested on: K-562 leukemia
[14] = tested on: OVCAR-5 ovarian
[15] = tested on: T-47D breast
[16] = tested on: LOX IMVI melanoma
[17] = tested on: HCT-116 colon
[18] = tested on: SF-295 CNS
[19] = tested on: NCI-H460 lung
[20] = tested on: OVCAR-8 ovarian
[21] = tested on: RPMI-8226 leukemia
[22] = tested on: SF-539 CNS
[23] = tested on: HS 578T breast
[24] = tested on: MDA-MB-435
[25] = tested on: NCI-H226 lung
[26] = tested on: SR leukemia
[27] = tested on: CCRF-CEM leukemia
[28] = tested on: OVCAR-4 ovarian
[29] = tested on: M14 melanoma
[30] = tested on: DU-145 prostate

Work on Cc1ccc(C(=O)NN2C(=O)/C(=C/C=C/c3ccc([N+](=O)[O-])o3)SC2=S)cc1 yielded a TGI [1] of 2.31 µM, a GI50 [2] of 0.222 µM and a TGI [2] of 0.542 µM. For the same compound, the GI50 [3] was 2.18 µM, the TGI [3] was 5.9 µM and the GI50 [4] was 0.207 µM. The TGI [4] was 0.535 µM, the GI50 [5] was 0.413 µM and the TGI [5] was 1.89 µM. For the same compound, the GI50 [6] was 0.125 µM, the TGI [6] was 0.295 µM and the GI50 [7] was 0.684 µM. The TGI [7] was 1.86 µM, the GI50 [8] was 1.96 µM and the TGI [8] was 4.82 µM. The GI50 [9] was 0.752 µM, the TGI [9] was 2.63 µM and the GI50 [10] was 1.77 µM. It also gave a TGI [10] of 3.35 µM, a GI50 [11] of 1.16 µM and a TGI [11] of 4.49 µM. For the same compound, the GI50 [12] was 1.68 µM, the TGI [12] was 3.58 µM and the GI50 [13] was 0.188 µM. For the same compound, the TGI [13] was 3.48 µM, the GI50 [14] was 1.43 µM and the TGI [14] was 2.79 µM. It also gave a GI50 [15] of 1.73 µM, a TGI [15] of 3.48 µM and a GI50 [16] of 0.179 µM. It also gave a TGI [16] of 0.352 µM, a GI50 [17] of 0.139 µM and a TGI [17] of 0.29 µM. It also gave a GI50 [18] of 1.76 µM, a TGI [18] of 3.48 µM and a GI50 [19] of 0.399 µM. It also gave a TGI [19] of 1.57 µM, a GI50 [20] of 0.292 µM and a TGI [20] of 1.02 µM. It also gave a GI50 [21] of 0.267 µM, a TGI [21] of 1.17 µM and a GI50 [22] of 0.251 µM. The TGI [22] was 0.718 µM, the GI50 [23] was 1.86 µM and the TGI [23] was 6.54 µM. The GI50 [24] was 0.267 µM, the TGI [24] was 0.8 µM and the GI50 [25] was 0.509 µM. The TGI [25] was 1.24 µM, the GI50 [26] was 0.0468 µM and the TGI [26] was over 100 µM. It also gave a GI50 [27] of 0.238 µM, a TGI [27] of 0.826 µM and a GI50 [28] of 1.6 µM. For the same compound, the TGI [28] was 3.1 µM, the GI50 [29] was 0.202 µM and the TGI [29] was 0.436 µM. The GI50 [30] was 1.5 µM and the TGI [30] was 2.92 µM.

From PubChem BioAssay (NCI)
